# Laboratory results taken from patent US11091428B2 (HAPLOGEN GMBH, priority 2016, dated 2021).
# Experiments:
# PLA2G16 = biological target: T1, PLA2G16 (Homo sapiens, UniProt P53816); experiment: Enzyme activity assay for PLA2G16 (Red/Green BODIPY PC-A2 fluorescence); type: biochemical; conditions: His-tagged PLA2G16, 4 min pre-incubation, 2 nM to 50 μM; read-out: IC50 values of the compounds determined in the enzyme activity assay for PLA2G16
# T1 construct: Hexa-His (N); made in house; host or cells: E. coli BL21(DE3)
# T1 sequence (P53816 1-162): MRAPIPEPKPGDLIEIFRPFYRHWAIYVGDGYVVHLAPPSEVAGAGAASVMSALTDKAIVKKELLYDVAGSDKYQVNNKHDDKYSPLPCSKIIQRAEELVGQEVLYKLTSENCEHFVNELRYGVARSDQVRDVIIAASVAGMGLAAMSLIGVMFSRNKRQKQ
# Method in brief: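 IC50 from non-linear fits of fluorescence rise (480/530 nm, 10 min) after adding Red/Green BODIPY PC-A2 mixed with DOPC/DOPG/cholesterol liposomes. Recombinant His-tagged human enzyme, bacterially expressed, was first exposed to inhibitor (2 nM–50 μM final) for 4 min in 50 mM Tris pH 8.5, 100 mM NaCl, 5 mM glutathione.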
# [1] = tested on: picornaviruses (CVB1, HRV-A2, HRV-A23, EV-68); experiment: Anti-picornavirus cytopathic effect (CPE) reduction assay on HeLa H1 cells; type: cell-based; conditions: Enterovirus B, HeLa H1, 48 h, HeLa H1 cells, 48 h, category from averaging the EC50 values from four picornaviruses (CVB1, HRV-A2, HRV-A23, EV68); read-out: EC50 values of the compounds determined in the anti-picornavirus assay
# Description: The antiviral activity of selected compounds was tested using a cytopathic effect (CPE) reduction assay on HeLa H1 cells (ATCC CRL-1958). Briefly, cells were seeded in 96-well dishes (2×10^4 cells/well) in DMEM medium (Life technologies) supplemented with 10% FBS and PenStrep solution (100 U/mL Penicillin and 100 μg/mL streptomycin) and incubated at 37° C., 5% CO2 ovemight. The next day, cells were pre-treated with serial dilutions of the compound in DMEM medium supplemented with 2% FBS and PenStrep for 2 h at 37° C., 5% CO2. Next, cells were infected with virus (CVB1, HRV-A2, HRV-A23, EV-68) at an multiplicity of infection (MOI) which results in a complete virus-induced CPE within 2 days in control wells (infected and vehicle-treated). After 48 h, supematants were aspirated and 50 μl/well of CellTiterBlue reagent (Promega) diluted 1:5 in DMEM+2% FBS, was added to the cells. Plates were returned to the incubator and allowed to develop for 1.5 h. After that, plates were equilibrated to RT and subsequently, fluorescence was recorded (Excitation wavelength: 560 nm; emission wavelength: 590 nm) using a SpectraMax M5 multimode plate reader. Viability of cells was calculated according to the formula: V=(RFUCpd−RFUVeh/(RFUM−RFUVeh), where RFUCpd refers to infected and compound-treated cells, RFUVeh to infected and vehicle-treated cells and RFUM to uninfected and vehicle treated cells. Half-maximal effective concentrations (EC50) were calculated by non-linear regression analysis using the drc package in R (R Development. Core Team, 2005). EC50 categories as presented in Table 2 were calculated by averaging the EC50 values from four picornaviruses (CVB1, HRV-A2, HRV-A23, EV68).
compound,measurement,setting,value
"COc1cc(F)ccc1N(C=O)C(C)C(=O)C(=O)NCc1cccc(Cl)c1 (stereo not drawn) [FP 8, N-[(3-Chlorophenyl)methyl]-3-[N-(4-fluoro-2-methoxyphenyl)formamido]-2-oxobutanamide]",IC50,PLA2G16,< 1000 nM
same,EC50,[1],< 1000 nM
"O=C(COCc1ccccc1)C(=O)NCC1CC1 [FP 128, 3-(Benzyloxy)-N-(cyclopropylmethyl)-2-oxopropanamide]",IC50,PLA2G16,< 1000 nM
same,EC50,[1],< 1000 nM
"CNC(=O)C(=O)C(C(C)C)N(C=O)Cc1ccccc1 (stereo not drawn) [FP 197, 3-(N-Benzylformamido)-N,4-dimethyl-2-oxopentanamide]",IC50,PLA2G16,< 1000 nM
same,EC50,[1],> 10000 nM
"COc1ccccc1N(C=O)C(C)C(=O)C(=O)NC(C)(C)C (stereo not drawn) [FP 75, N-tert-Butyl-3-[N-(2-methoxyphenyl)formamido]-2-oxobutanamide]",IC50,PLA2G16,< 1000 nM
same,EC50,[1],1000 to 10000 nM
"O=CN(Cc1ccccc1)[C@@H](Cc1c[nH]cn1)C(=O)C(=O)NCC1CCCCC1 [FP 118, (3S)-3-(N-Benzylformamido)-N-(cyclohexylmethyl)-4-(1H-imidazol-4-yl)-2-oxobutanamide]",IC50,PLA2G16,< 1000 nM
same,EC50,[1],1000 to 10000 nM
"O=C(NCC1CC1)C(=O)C1CCC(=O)N1CC1CCCCC1 (stereo not drawn) [FP 202, 2-[1-(Cyclohexylmethyl)-5-oxopyrrolidin-2-yl]-N-(cyclopropylmethyl)-2-oxoacetamide]",IC50,PLA2G16,< 1000 nM
same,EC50,[1],< 1000 nM
"CC(=O)NCCCCCCCNC(=O)C(=O)C1CCC(=O)N1Cc1ccccc1 (stereo not drawn) [FP 326, 2-(1-Benzyl-5-oxopyrrolidin-2-yl)-N-(7-acetamidoheptyl)-2-oxoacetamide]",IC50,PLA2G16,< 1000 nM
same,EC50,[1],1000 to 10000 nM
"COc1ccccc1N(C=O)C(C)C(=O)C(=O)NCc1ccc(Cl)cc1 (stereo not drawn) [FP 91, N-[(4-Chlorophenyl)methyl]-3-[N-(2-methoxyphenyl)formamido]-2-oxobutanamide]",IC50,PLA2G16,< 1000 nM
same,EC50,[1],< 1000 nM
"C[C@H](CO)NC(=O)C(=O)C1CCC(=O)N1Cc1ccc(Cl)cc1 (stereo partly drawn) [FP 258, 2-{1-[(4-Chlorophenyl)methyl]-5-oxopyrrolidin-2-yl}-N-[(2R)-1-hydroxypropan-2-yl]-2-oxoacetamide]",IC50,PLA2G16,1000 to 10000 nM
same,EC50,[1],1000 to 10000 nM
"COc1ccccc1N(C=O)C(C)C(=O)C(=O)NCC(C)C (stereo not drawn) [FP 100, 3-[N-(2-Methoxyphenyl)formamido]-N-(2-methylpropyl)-2-oxobutanamide]",IC50,PLA2G16,< 1000 nM
same,EC50,[1],1000 to 10000 nM
"Cc1ccc(CN2C(=O)CCC2C(=O)C(=O)NC2CC2)cc1 (stereo not drawn) [FP 270, N-Cyclopropyl-2-{1-[(4-methylphenyl)methyl]-5-oxopyrrolidin-2-yl}-2-oxoacetamide]",IC50,PLA2G16,< 1000 nM
same,EC50,[1],< 1000 nM
"O=C(NC1CC1)C(=O)C1CCC(=O)N1Cc1ccc(F)cc1 (stereo not drawn) [FP 242, N-Cyclopropyl-2-{1-[(4-fluorophenyl)methyl]-5-oxopyrrolidin-2-yl}-2-oxoacetamide]",IC50,PLA2G16,< 1000 nM
same,EC50,[1],1000 to 10000 nM
"CC(C(=O)C(=O)NCc1cccc(Cl)c1)N(C=O)CC1CCOCC1 (stereo not drawn) [FP 24, N-[(3-Chlorophenyl)methyl]-3-{N[(oxan-4-yl)methyl]formamido}-2-oxobutanamide]",IC50,PLA2G16,< 1000 nM
same,EC50,[1],1000 to 10000 nM
"CC(C)(C#N)CNC(=O)C(=O)[C@H]1CCC(=O)N1Cc1ccccc1 [FP 263, 2-[(2R)-1-Benzyl-5-oxopyrrolidin-2-yl]-N-(2-cyano-2,2-dimethylethyl)-2-oxoacetamide]",IC50,PLA2G16,< 1000 nM
same,EC50,[1],1000 to 10000 nM
"CC(NC(=O)c1c(Cl)cccc1Cl)C(=O)C(=O)NCC1CC1 (stereo not drawn) [FP 163, N-(Cyclopropylmethyl)-3-[(2,6-dichlorophenyl)formamido]-2-oxobutanamide]",IC50,PLA2G16,< 1000 nM
same,EC50,[1],< 1000 nM
"CC(NS(=O)(=O)c1ccc(F)cc1)C(=O)C(=O)NCC1CC1 (stereo not drawn) [FP 219, N-(Cyclopropylmethyl)-3-(4-fluorobenzenesulfonamido)-2-oxobutanamide]",IC50,PLA2G16,< 1000 nM
same,EC50,[1],1000 to 10000 nM
"O=C(NCCN1CCCCC1=O)C(=O)[C@H]1CCC(=O)N1Cc1ccccc1 [FP 292, 2-[(2R)-1-Benzyl-5-oxopyrrolidin-2-yl]-2-oxo-N-[2-(2-oxopiperidin-1-yl)ethyl]acetamide]",IC50,PLA2G16,< 1000 nM
same,EC50,[1],1000 to 10000 nM
"O=C(NCC1CC1)C(=O)C1CCC(=O)N1c1ccccc1 (stereo not drawn) [FP 264, N-(Cyclopropylmethyl)-2-oxo-2-(5-oxo-1-phenylpyrrolidin-2-yl)acetamide]",IC50,PLA2G16,1000 to 10000 nM
same,EC50,[1],> 10000 nM
"CC(NS(=O)(=O)c1ccccc1)C(=O)C(=O)NCC1CC1 (stereo not drawn) [FP 187, 3-Benzenesulfonamido-N-(cyclopropylmethyl)-2-oxobutanamide]",IC50,PLA2G16,< 1000 nM
same,EC50,[1],1000 to 10000 nM
"O=C(NC1CN(C(=O)C2CCC2)C1)C(=O)[C@H]1CCC(=O)N1Cc1ccccc1 [FP 318, 2-[(2R)-1-Benzyl-5-oxopyrrolidin-2-yl]-N-(1-cyclobutanecarbonylazetidin-3-yl)-2-oxoacetamide]",IC50,PLA2G16,< 1000 nM
same,EC50,[1],1000 to 10000 nM
"O=C(NC1CC(F)C1)C(=O)[C@H]1CCC(=O)N1Cc1ccccc1 (stereo partly drawn) [FP 294, 2-[(2R)-1-Benzyl-5-oxopyrrolidin-2-yl]-N-(3-fluorocyclobutyl)-2-oxoacetamide]",IC50,PLA2G16,< 1000 nM
same,EC50,[1],< 1000 nM
"NC(=O)c1ccc(CN2C(=O)CCC2C(=O)C(=O)NCC2CCCCC2)cc1 (stereo not drawn) [FP 252, 4-[(2-{[(Cyclohexylmethyl)carbamoyl]carbonyl}-5-oxopyrrolidin-1-yl)methyl]benzamide]",IC50,PLA2G16,< 1000 nM
same,EC50,[1],1000 to 10000 nM
"CCCC(NC(=O)CN1CCN(C)CC1)C(=O)C(=O)NCC1CCCCC1 (stereo not drawn) [FP 214, N-(Cyclohexylmethyl)-3-[2-(4-methylpiperazin-1-yl)acetamido]-2-oxohexanamide]",IC50,PLA2G16,1000 to 10000 nM
same,EC50,[1],> 10000 nM
"COc1ccccc1N(C=O)C(C)C(=O)C(=O)NC(C)(C)c1cccc(Cl)c1 (stereo not drawn) [FP 11, N-[2-(3-Chlorophenyl)propan-2-yl]-3-[N-(2-methoxyphenyl)formamido]-2-oxobutanamide]",IC50,PLA2G16,< 1000 nM
same,EC50,[1],< 1000 nM
"O=CN(Cc1ccccc1)[C@@H](Cc1c[nH]cn1)C(=O)C(=O)NCC1CC1 [FP 119, (3S)-3-(N-Benzylformamido)-N-(cyclopropylmethyl)-4-(1H-imidazol-4-yl)-2-oxobutanamide]",IC50,PLA2G16,< 1000 nM
same,EC50,[1],> 10000 nM
"CC(C)CNC(=O)C(=O)C(C)OC1CCCCC1 (stereo not drawn) [FP 124, 3-(Cyclohexyloxy)-N-(2-methylpropyl)-2-oxobutanamide]",IC50,PLA2G16,< 1000 nM
same,EC50,[1],< 1000 nM
"CCC(C(=O)C(=O)NCC1CCCCC1)N(C=O)CC1CCN(C(=O)OC(C)(C)C)CC1 (stereo not drawn) [FP 59, tert-Butyl 4-[(N-{1-[(cyclohexylmethyl)carbamoyl]-1-oxobutan-2-yl} formamido)methyl]-piperidine-1-carboxylate]",IC50,PLA2G16,< 1000 nM
same,EC50,[1],1000 to 10000 nM
"CC(C)C(=O)NCCCCNC(=O)C(=O)[C@H]1CCC(=O)N1Cc1ccccc1 [FP 304, N-(4-{2-[(2R)-1-Benzyl-5-oxopyrrolidin-2-yl]-2-oxoacetamido}butyl)-2-methylpropan-amide]",IC50,PLA2G16,< 1000 nM
same,EC50,[1],1000 to 10000 nM
"CC[C@@H](C)NC(=O)C(=O)C(C)N(C=O)c1ccccc1OC (stereo partly drawn) [FP 102, N-[(2R)-Butan-2-yl]-3-[N-(2-methoxyphenyl)formamido]-2-oxobutanamide]",IC50,PLA2G16,< 1000 nM
same,EC50,[1],1000 to 10000 nM
"O=C(NCCCO)C(=O)C1CCC(=O)N1Cc1ccc(Cl)cc1 (stereo not drawn) [FP 275, 2-{1-[(4-Chlorophenyl)methyl]-5-oxopyrrolidin-2-yl}-N-(3-hydroxypropyl)-2-oxoacetamide]",IC50,PLA2G16,< 1000 nM
same,EC50,[1],> 10000 nM
"CC(C(=O)C(=O)NCC1CCCCC1)N(C=O)CC1CC1 (stereo not drawn) [FP 51, N-(Cyclohexylmethyl)-3-[N-(cyclopropylmethyl)formamido]-2-oxobutanamide]",IC50,PLA2G16,< 1000 nM
same,EC50,[1],1000 to 10000 nM
"CC(C)SCCNC(=O)C(=O)C1CCC(=O)N1Cc1ccc(Cl)cc1 (stereo not drawn) [FP 257, 2-{1-[(4-Chlorophenyl)methyl]-5-oxopyrrolidin-2-yl}-2-oxo-N-[2-(propan-2-ylsulfanyl)-ethyl]acetamide]",IC50,PLA2G16,< 1000 nM
same,EC50,[1],< 1000 nM
"COC(=O)N(CC1CCOCC1)C(C)C(=O)C(=O)NCC(C)C (stereo not drawn) [FP 152, Methyl N-{1-[(2-methylpropyl)carbamoyl]-1-oxopropan-2-yl}-N-[(oxan-4-yl)methyl]carbamate]",IC50,PLA2G16,1000 to 10000 nM
same,EC50,[1],> 10000 nM
